Structures can show the parent of a compound that is named as a salt.
Assays:
COX-2 promoter = COX-2 promoter luciferase reporter assay in HEK293 cells; format: cell-based, human; conditions: TPA 10 ng/ml 18 hours
Method: (§1) All expression plasmids were transiently transfected into HEK293 cells in a 96-well plate (0.1 μg/well) by using Effectene transfection reagent (Qiagen, Valencia, Calif.) according to the manufacturer's manual. HEK293 cells were maintained in Dulbecco's modified Eagle medium (Sigma, St. Louis, Mo.) supplemented with 10% fetal bovine serum (Atlanta Biologicals, Lawrenceville, Ga.) and incubated at 37° C. in a 5% CO2 incubator. After 24 hrs incubation, the medium was changed to DMEM with 0.2% FBS, and the transfectants were exposed to various concentrations of compound I and TPA (10 ng/ml). Cells were lysed with passive lysis buffer and the luciferase assay was performed using the Firefly-Luciferase reporter assay system (Promega, Madison, Wis.) and MLX Luminometer (Dynex Technology, Chantilly, Va.).
Three different luciferase reporter genes, AP-1 reporter containing four times TRE consensus originated from GCN4 and SRE reporter purchased from Stratagene (La Jolla, Calif.) respectively are as described previously (Suzukawa et al., Environ. Health Perspect., 2002, 110, 865-70). […]
Inhibition of NFκB transactivation would be expected to result in suppressed expression of genes whose transcription depends on NFκB. Quantitative RT-PCR was used to measure endogenous levels of IL-6 mRNA, transcribed from a gene whose transcription depends on NFκB but not AP-1. […]

IKKβ = biological target: T1, IKKβ (Homo sapiens, UniProt O14920); experiment: Off-chip incubation mobility-shift kinase assay, IKKβ; format: biochemical
T1 construct: purchased Calbiochem
T1 sequence (O14920 1-756): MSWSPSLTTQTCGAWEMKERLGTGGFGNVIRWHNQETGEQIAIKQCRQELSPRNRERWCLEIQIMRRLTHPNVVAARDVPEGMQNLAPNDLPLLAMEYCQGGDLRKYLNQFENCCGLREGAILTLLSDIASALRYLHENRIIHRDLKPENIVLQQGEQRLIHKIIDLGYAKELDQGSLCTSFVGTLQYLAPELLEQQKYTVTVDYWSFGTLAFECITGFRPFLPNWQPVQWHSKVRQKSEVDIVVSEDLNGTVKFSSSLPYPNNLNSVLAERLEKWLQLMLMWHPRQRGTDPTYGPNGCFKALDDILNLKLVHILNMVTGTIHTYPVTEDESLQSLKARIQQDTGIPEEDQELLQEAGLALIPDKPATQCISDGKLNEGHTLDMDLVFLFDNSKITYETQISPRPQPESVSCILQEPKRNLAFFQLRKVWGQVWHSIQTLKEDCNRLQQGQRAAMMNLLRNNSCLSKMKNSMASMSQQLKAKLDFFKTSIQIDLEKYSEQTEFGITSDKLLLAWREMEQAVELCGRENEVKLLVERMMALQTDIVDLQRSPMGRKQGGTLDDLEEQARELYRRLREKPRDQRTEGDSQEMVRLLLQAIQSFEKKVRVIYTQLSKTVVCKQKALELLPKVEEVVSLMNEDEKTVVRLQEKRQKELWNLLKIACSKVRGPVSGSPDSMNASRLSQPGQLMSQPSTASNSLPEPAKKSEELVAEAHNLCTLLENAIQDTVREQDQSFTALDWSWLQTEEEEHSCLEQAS
Method: (§2) In an attempt to determine whether compound I interferes with ATP binding to the catalytic site, the activity of compound I was measured with fully activated, phosphorylated IKKα or IKKβ. […] However, whether this compound interacts outside of the ATP binding pocket of IKK as an ATP non-competitive inhibitor similar to BMS-345541 is unknown. […] Luciferase activities with TPA induction alone were set at 100% and the relative activities with TPA in the presence of compounds are shown.

IKKα = IKKα (Homo sapiens, UniProt O15111); experiment: Off-chip incubation mobility-shift kinase assay, IKKα; format: biochemical; conditions: fully activated, phosphorylated IKKα; 1.25, 2.50, 5.00, and 10.00 μM
Method: as §2

NFκB = NFκB luciferase reporter assay in HEK293 cells; format: cell-based
Method: as §1
Three different luciferase reporter genes, AP-1 reporter containing four times TRE consensus originated from GCN4 and SRE reporter purchased from Stratagene (La Jolla, Calif.) respectively are as described previously (Suzukawa et al., Environ. Health Perspect., 2002, 110, 865-70). NFκB reporter is driven by five times NFκB responsive element inserted into Cis-reporter backbone (Stratagene, La Jolla, Calif.). Others include mouse COX-2 promoter region from −203 to +70 relative to the transcription site inserted into pTIS10L vector (Kim and Fischer, J. Biol. Chem., 1998, 273, 27686-94), human uPAR promoter region from −141 to +47 relative to transcription start site in pGL3 vector (Wang et al., Eur. J. Biochem., 2000, 267, 3248-54), and human VEGF promoter sequence from −2274 to +379 inserted into the pGL2 vector (Ding et al., J. Biol. Chem., 2006, 281, 9093-100).
To evaluate whether the compound I biological activity can imitate TAM67 specificity, three different transcriptional promoter reporters were used, AP-1, NFκB, and SRE (Serum response element) in luciferase reporter assays (FIG. 1A: The transfected cells were pre-treated with varied concentrations of compound I or DMSO for 1 hour before 18 hours stimulation by TPA (10 ng/ml) or DMSO as vehicle. An asterisk (*) indicates a separate experiment with NFκB dependent luciferase only. Assays were performed with two independent experiments each in quadruplicate.). All three activities were induced by TPA but only induction of AP-I and NFκB were inhibited by TAM67. The SRE reporter was used as a specificity control and indicator of cell proliferation. TPA-induced SRE activity was not repressed by TAM67 when coexpressed with the SRE-Luc reporter in HEK293 cells. The same concentration (10 ng/ml, 16.2 nM) and incubation time (18 hrs) were used for TPA induction as previously used for the high throughput screen (HTS) (Ruocco et al., J. Biomol. Screen., 2007, 12, 133-9) along with 1 h pretreatment of compound I. The screening results had tested concentrations as high as 40 μM compound I with cell numbers showing 95.5+/−6.2% of DMSO control (ave+/− sd, n=3) by the XTT assay in HEK293T cells.

Sequence of IKKα (O15111 whole entry, species assumed): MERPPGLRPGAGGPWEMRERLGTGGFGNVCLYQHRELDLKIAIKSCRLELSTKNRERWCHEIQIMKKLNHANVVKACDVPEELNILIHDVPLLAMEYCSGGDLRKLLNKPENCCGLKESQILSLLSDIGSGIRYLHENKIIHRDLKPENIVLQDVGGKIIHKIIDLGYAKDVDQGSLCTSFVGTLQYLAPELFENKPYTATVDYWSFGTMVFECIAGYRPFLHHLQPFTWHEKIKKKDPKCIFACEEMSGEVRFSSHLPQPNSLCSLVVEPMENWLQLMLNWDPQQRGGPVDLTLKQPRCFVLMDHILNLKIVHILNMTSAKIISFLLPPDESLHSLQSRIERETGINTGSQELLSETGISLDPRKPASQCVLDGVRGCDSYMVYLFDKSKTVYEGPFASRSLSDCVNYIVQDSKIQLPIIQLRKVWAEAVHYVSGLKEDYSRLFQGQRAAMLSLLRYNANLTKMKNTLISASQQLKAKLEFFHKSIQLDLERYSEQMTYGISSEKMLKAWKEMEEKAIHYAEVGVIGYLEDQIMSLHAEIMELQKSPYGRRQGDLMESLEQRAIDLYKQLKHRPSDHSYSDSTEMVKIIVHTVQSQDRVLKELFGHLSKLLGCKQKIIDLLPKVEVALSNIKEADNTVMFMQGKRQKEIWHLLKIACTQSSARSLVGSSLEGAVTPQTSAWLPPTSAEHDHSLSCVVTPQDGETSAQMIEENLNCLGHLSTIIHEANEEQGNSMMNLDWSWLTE

SMILES: Cc1cc(N)ccc1N=Nc1ccc(S(=O)(=O)CCOS(=O)(=O)O)cc1 [compound I, 2-(4-((4-amino-2-methylphenyl)diazenyl)phenylsulfonyl)ethyl hydrogen sulfate]
- COX-2 luciferase activity (COX-2 promoter): dose-dependent inhibition
- Binding to the ATP binding pocket of IKKβ (IKKβ): no activity
- Inhibition of IKKβ activity, phosphorylation of a peptide substrate (IKKβ; fully activated, phosphorylated IKKβ, 1.25, 2.50, 5.00, and 10.00 μM): does not inhibit
- Inhibition of IKKα activity, phosphorylation of a peptide substrate (IKKα): does not inhibit
- Inhibition of TPA-induced NFκB luciferase activity (NFκB; HEK293, TPA 10 ng/ml, compound I at all concentrations tested): dose-dependently inhibited
- IC50 (NFκB; Homo sapiens, HEK293, 1 h pretreatment, TPA 10 ng/ml 18 hrs, read-out: IC50 against TPA-induced NFκB reporter): ~4 µM
- Inhibition of NFκB induced by TNFα (NFκB; TNFα induction): dose-dependent inhibition
- TPA-induced NFκB luciferase activity (NFκB; compound at 17.0 μM): completely blocked to the non-induced level
- Transcriptional activation of NFκB dependent genes (NFκB; concentrations as low as 1.1 μM): repressed
- Basal NFκB luciferase activity (NFκB; without TPA induction): inhibited, but to a lesser extent
